Test results taken from patent US20240166635A1, “AMINOHETEROARYL KINASE INHIBITORS” (Anrui Biomedical Technology (Guangzhou) Co.,Ltd., priority 2020, published 2024).

What was measured:
Assay type in all cases: biochemical
[1] = target: CDK2/CyclinE1 (Homo sapiens (Human), UniProt P24941); experiment: CDK2/CyclinE1 kinase inhibitory activity (Caliper mobility shift); conditions: for IC50: read-out: CDK2/Cyclin El IC50
[2] = target: CDK1/CyclinB (Homo sapiens (Human), UniProt P06493); experiment: CDK1/CyclinB kinase inhibitory activity (Caliper mobility shift); conditions: read-out: CDK1/Cyclin B1 IC50
Chain of CDK1/CyclinB (P06493 whole entry): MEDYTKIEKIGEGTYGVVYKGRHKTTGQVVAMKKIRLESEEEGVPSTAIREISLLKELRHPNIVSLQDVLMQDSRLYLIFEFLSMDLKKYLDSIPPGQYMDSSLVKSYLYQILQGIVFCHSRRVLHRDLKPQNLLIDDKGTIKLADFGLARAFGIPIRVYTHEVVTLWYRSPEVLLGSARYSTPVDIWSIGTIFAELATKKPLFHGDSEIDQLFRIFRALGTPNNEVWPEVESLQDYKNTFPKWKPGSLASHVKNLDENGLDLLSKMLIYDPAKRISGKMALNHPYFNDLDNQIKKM
Chain of CDK1/CyclinB (P14635 whole entry partner): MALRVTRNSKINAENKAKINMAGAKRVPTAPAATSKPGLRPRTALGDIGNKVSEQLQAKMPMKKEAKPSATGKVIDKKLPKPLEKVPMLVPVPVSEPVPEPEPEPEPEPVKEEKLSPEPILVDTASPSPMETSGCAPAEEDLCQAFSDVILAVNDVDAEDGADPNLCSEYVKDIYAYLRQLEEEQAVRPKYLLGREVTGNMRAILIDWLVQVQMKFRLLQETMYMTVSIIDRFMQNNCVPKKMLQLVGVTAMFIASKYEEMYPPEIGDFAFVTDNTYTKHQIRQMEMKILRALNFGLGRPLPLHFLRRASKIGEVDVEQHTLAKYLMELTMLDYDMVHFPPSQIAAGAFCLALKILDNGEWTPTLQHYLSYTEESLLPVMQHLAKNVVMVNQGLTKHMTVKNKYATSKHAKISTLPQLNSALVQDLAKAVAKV

[3] = target: CDK4/Cyclin D1 (Homo sapiens (Human), UniProt P11802); experiment: CDK4/CyclinD1 kinase inhibitory activity (Caliper mobility shift)
Chain of CDK4/Cyclin D1 (P11802 whole entry): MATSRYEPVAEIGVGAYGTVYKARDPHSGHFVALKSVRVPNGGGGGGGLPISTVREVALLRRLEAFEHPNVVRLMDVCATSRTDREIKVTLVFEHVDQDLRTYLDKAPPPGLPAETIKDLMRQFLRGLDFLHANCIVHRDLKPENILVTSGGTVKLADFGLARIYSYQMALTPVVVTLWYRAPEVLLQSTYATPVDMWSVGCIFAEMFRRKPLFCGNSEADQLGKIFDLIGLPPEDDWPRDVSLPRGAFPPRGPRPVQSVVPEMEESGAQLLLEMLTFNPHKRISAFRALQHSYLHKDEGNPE
Chain of CDK4/Cyclin D1 (P24385 whole entry partner): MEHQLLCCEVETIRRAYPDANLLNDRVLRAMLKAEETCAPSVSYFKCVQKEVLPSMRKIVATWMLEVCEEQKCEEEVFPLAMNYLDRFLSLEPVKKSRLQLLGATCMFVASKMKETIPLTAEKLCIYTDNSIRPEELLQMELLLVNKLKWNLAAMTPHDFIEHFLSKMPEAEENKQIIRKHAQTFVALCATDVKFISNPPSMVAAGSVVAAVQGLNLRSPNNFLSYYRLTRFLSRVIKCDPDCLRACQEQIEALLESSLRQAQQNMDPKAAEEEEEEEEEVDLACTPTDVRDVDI

[4] = target: CDK6/CyclinD1 (Homo sapiens (Human), UniProt Q00534); experiment: CDK6/CyclinD1 kinase inhibitory activity (Caliper mobility shift); conditions: read-out: CDK6/Cyclin D1 IC50
Chain of CDK6/CyclinD1 (Q00534 whole entry): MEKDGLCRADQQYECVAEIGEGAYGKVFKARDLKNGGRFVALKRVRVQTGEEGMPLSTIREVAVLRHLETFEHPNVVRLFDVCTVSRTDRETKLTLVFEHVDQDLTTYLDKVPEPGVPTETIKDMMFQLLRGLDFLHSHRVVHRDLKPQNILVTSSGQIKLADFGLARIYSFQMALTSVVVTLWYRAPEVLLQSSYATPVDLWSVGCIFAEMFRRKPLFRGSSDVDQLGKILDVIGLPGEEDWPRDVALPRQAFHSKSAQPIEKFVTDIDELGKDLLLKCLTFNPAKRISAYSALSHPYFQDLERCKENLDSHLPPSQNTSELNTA
Chain of CDK6/CyclinD1 (P24385 whole entry partner): as the sequence (P24385 whole entry partner) above

[5] = target: CDK7/CyclinH/MAT1 (Homo sapiens (Human), UniProt P50613); experiment: CDK7/CyclinH/MAT1 kinase inhibitory activity (Caliper mobility shift)
Chain of CDK7/CyclinH/MAT1 (P50613 whole entry): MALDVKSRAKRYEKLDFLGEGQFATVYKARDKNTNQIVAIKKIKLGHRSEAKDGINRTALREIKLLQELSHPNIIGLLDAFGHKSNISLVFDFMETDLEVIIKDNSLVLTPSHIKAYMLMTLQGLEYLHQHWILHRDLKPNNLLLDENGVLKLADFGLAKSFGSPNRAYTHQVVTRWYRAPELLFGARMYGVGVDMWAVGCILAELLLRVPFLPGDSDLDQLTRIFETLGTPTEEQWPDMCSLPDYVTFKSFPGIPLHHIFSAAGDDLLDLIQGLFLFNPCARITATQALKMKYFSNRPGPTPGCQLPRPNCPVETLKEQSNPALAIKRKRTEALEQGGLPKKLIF
Chain of CDK7/CyclinH/MAT1 (P51946 whole entry partner): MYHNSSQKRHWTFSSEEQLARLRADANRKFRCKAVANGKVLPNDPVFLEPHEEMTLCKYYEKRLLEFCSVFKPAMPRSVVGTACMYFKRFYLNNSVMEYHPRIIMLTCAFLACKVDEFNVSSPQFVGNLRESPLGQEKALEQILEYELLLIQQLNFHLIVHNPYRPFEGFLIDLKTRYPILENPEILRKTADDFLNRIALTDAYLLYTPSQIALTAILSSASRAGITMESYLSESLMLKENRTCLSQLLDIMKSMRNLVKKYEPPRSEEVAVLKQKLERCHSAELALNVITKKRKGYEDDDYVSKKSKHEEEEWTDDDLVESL
Chain of CDK7/CyclinH/MAT1 (P51948 whole entry partner): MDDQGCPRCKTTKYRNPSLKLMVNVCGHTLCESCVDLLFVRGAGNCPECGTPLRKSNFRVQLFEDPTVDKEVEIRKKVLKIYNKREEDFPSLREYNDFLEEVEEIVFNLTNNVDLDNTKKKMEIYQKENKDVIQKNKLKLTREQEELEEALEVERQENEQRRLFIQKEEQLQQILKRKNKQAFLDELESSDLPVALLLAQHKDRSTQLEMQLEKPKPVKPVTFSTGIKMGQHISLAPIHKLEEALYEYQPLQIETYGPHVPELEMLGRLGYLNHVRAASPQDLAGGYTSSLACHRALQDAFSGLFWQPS

[6] = target: CDK9/CyclinT1 (Homo sapiens (Human), UniProt P50750); experiment: CDK9/CyclinT1 kinase inhibitory activity (Caliper mobility shift); conditions: read-out: CDK9/Cyclin T1 IC50
Chain of CDK9/CyclinT1 (P50750 whole entry): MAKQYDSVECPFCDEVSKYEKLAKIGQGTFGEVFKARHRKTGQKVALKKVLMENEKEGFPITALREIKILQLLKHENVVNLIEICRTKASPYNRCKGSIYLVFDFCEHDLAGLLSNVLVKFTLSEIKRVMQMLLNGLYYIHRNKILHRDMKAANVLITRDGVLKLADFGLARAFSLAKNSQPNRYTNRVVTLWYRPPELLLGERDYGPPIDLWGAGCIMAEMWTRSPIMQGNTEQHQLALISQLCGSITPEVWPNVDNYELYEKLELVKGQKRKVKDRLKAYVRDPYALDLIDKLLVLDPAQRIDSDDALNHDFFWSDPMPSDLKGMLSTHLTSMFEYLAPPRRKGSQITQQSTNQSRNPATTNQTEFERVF
Chain of CDK9/CyclinT1 (O60563 whole entry partner): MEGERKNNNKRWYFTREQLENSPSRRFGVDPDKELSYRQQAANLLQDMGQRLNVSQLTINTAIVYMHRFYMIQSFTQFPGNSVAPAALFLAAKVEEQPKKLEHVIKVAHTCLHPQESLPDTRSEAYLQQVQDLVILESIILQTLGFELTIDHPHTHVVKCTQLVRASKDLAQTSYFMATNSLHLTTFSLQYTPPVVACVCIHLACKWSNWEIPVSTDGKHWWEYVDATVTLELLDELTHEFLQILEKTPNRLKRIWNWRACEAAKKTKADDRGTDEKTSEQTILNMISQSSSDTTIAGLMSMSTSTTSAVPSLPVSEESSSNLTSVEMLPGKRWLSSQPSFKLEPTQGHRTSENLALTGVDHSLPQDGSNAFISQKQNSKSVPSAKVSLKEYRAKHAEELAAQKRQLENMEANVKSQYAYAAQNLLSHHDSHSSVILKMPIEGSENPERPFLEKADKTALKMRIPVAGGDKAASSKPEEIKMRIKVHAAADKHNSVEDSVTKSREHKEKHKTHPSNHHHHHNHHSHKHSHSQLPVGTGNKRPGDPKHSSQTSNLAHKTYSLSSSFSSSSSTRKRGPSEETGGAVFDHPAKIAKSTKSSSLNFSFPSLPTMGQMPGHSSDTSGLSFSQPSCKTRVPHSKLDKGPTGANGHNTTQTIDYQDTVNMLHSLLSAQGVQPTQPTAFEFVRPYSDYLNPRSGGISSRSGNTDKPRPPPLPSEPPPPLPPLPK

Row | SMILES | IC50 [1] [nM] | IC50 [2] [nM] | IC50 [3] [nM] | IC50 [4] [nM] | IC50 [5] [nM] | IC50 [6] [nM] | selectivity over CDK1 ([1]; inhibiting CDK2 over CDK1)
1 | Cn1cnc(S(=O)(=O)N2CCC(Nc3ncc(C#N)c(OC4CCCC4(C)O)n3)CC2)c1 (single isomer, unassigned) [Example 50a] | < 10 | < 10 | < 10 | < 10 | 100 to 1000 | 100 to 1000 | –
2 | N#Cc1cnc(Nc2ccc(S(N)(=O)=O)cc2)nc1OC1CCCCCC1O (single isomer, unassigned) [Example 22a] | < 10 | 10 to 100 | 10 to 100 | 10 to 100 | ≥ 1000 | 100 to 1000 | –
3 | N#Cc1cnc(Nc2ccc(S(N)(=O)=O)cc2)nc1N1CCCCC1 [Example 65, 4-((5-cyano-4-(piperidin-1-yl)pyrimidin-2-yl)amino) benzenesulfonamide] | < 10 | 10 to 100 | 10 to 100 | 100 to 1000 | ≥ 1000 | 100 to 1000 | –
4 | CC(C)NS(=O)(=O)c1ccc(Nc2ncc(C#N)c(OC3CCC[C@H]3O)n2)cc1 (mixture of isomers) [Example 27] | < 10 | 10 to 100 | 100 to 1000 | 100 to 1000 | ≥ 1000 | 100 to 1000 | –
5 | N#Cc1cnc(Nc2ccc(S(N)(=O)=O)cc2)nc1OC1CCCC1O (single isomer, unassigned) [Example 20b] | 10 to 100 | 100 to 1000 | 100 to 1000 | 100 to 1000 | ≥ 1000 | 100 to 1000 | –
6 | CC(C)NS(=O)(=O)c1ccc(Nc2ncc(C#N)c(OC3CCCC3(C)O)n2)cc1 (single isomer, unassigned) [Example 35a] | < 10 | < 10 | 10 to 100 | 10 to 100 | 10 to 100 | 10 to 100 | –
7 | N#Cc1cnc(Nc2ccc(S(N)(=O)=O)cc2)nc1N1CCC[C@H](F)C1 [Example 81] | 10 to 100 | 100 to 1000 | 10 to 100 | 100 to 1000 | ≥ 1000 | 100 to 1000 | –
8 | N#Cc1cnc(Nc2ccc(S(N)(=O)=O)cc2)nc1O[C@@H]1CCCC[C@@H]1O (single isomer, unassigned) [Example 2a, cis-4-((5-cyano-4-((2-hydroxycyclohexyl)oxy)pyrimidin-2-yl)amino)benzenesulfonamide] | < 10 | 10 to 100 | 10 to 100 | 10 to 100 | ≥ 1000 | 100 to 1000 | –
9 | CC1(COc2nc(NC3CCN(S(=O)(=O)CCO)CC3)ncc2C#N)CCCC1 [Example 57] | < 10 | < 10 | < 10 | < 10 | 100 to 1000 | 10 to 100 | –
10 | CC1(O)CC(F)(F)CC1Oc1nc(NC2CCN(S(=O)(=O)CC3CC3)CC2)ncc1C#N (single isomer, unassigned) [Example 44b] | < 10 | 10 to 100 | 10 to 100 | < 10 | 10 to 100 | 100 to 1000 | –
11 | N#Cc1cnc(Nc2ccc(S(N)(=O)=O)cc2)nc1OCC1CCC1 [Example 9] | < 10 | 10 to 100 | 10 to 100 | 10 to 100 | ≥ 1000 | 100 to 1000 | more than 30 fold
12 | CC1(O)COCCC1Oc1nc(NC2CCN(S(C)(=O)=O)CC2)ncc1C#N (single isomer, unassigned) [Example 45a] | < 10 | 10 to 100 | 10 to 100 | 10 to 100 | 10 to 100 | 100 to 1000 | –
13 | CC1(COc2nc(NC3CCN(S(N)(=O)=O)CC3)ncc2C#N)CCCC1 [Example 56] | < 10 | < 10 | < 10 | 10 to 100 | 100 to 1000 | 100 to 1000 | –
14 | CC1(O)CCCC1Oc1nc(NC2CCN(S(=O)(=O)CC3CC3)CC2)ncc1C#N (single isomer, unassigned) [Example 38a] | < 10 | 10 to 100 | < 10 | < 10 | 10 to 100 | 100 to 1000 | –

Other lines, results leading:

Row | IC50 [1] [nM] | IC50 [2] [nM] | IC50 [3] [nM] | IC50 [4] [nM] | IC50 [5] [nM] | IC50 [6] [nM] | selectivity over CDK1 ([1]; inhibiting CDK2 over CDK1) | SMILES
15 | < 10 | 10 to 100 | 100 to 1000 | 100 to 1000 | 100 to 1000 | 100 to 1000 | – | CC(C)NS(=O)(=O)c1ccc(Nc2ncc(Cl)c(OC3CCCC3O)n2)cc1 (single isomer, unassigned) [Example 138a]
16 | < 10 | 10 to 100 | 100 to 1000 | 100 to 1000 | 100 to 1000 | 100 to 1000 | – | [2H]C([2H])([2H])NS(=O)(=O)c1ccc(Nc2ncc(C(F)(F)F)c(OC3CCCC3O)n2)cc1 (single isomer, unassigned) [Example 109a]
17 | < 10 | 10 to 100 | < 10 | 100 to 1000 | 100 to 1000 | 10 to 100 | – | CS(=O)(=O)N1CCC(Nc2ncc(C(F)(F)F)c(OC3CCCCC3)n2)CC1 [Example 127]
18 | < 10 | 10 to 100 | 100 to 1000 | 10 to 100 | 100 to 1000 | 10 to 100 | – | C=Cc1cnc(Nc2ccc(S(N)(=O)=O)cc2)nc1OC1CCCC1O (single isomer, unassigned) [Example 155a]
19 | < 10 | 10 to 100 | 100 to 1000 | 100 to 1000 | 100 to 1000 | 100 to 1000 | – | CNS(=O)(=O)c1ccc(Nc2ncc(C(F)(F)F)c(OC3CCOCC3O)n2)cc1 (single isomer, unassigned) [Example 116a]
20 | < 10 | 10 to 100 | 100 to 1000 | 10 to 100 | 100 to 1000 | 10 to 100 | – | CCc1cnc(Nc2ccc(S(N)(=O)=O)cc2)nc1O[C@@H]1CCC[C@@H]1O (single isomer, unassigned) [Example 133a, cis-4-((5-ethyl-4-((2-hydroxycyclopentyl)oxy)pyrimidin-2-yl)amino)benzenesulfonamide]
21 | < 10 | 10 to 100 | < 10 | 100 to 1000 | ≥ 1000 | 10 to 100 | – | CNS(=O)(=O)N1CCC(Nc2ncc(C(F)(F)F)c(OC3CCCCCC3)n2)CC1 [Example 129]
22 | < 10 | < 10 | 10 to 100 | 100 to 1000 | 100 to 1000 | 10 to 100 | – | CC(C)NS(=O)(=O)c1ccc(Nc2ncc(C(F)(F)F)c(OC3CCCC3O)n2)cc1 (single isomer, unassigned) [Example 106a]
23 | < 10 | 10 to 100 | < 10 | 10 to 100 | ≥ 1000 | 10 to 100 | – | CC1(COc2nc(NC3CCN(S(C)(=O)=O)CC3)ncc2C(F)(F)F)CCCC1 [Example 128]
24 | < 10 | 10 to 100 | 100 to 1000 | 10 to 100 | 100 to 1000 | 100 to 1000 | – | CNS(=O)(=O)c1ccc(Nc2ncc(Cl)c(OC3CCCC3O)n2)cc1 (single isomer, unassigned) [Example 137a]
25 | < 10 | 10 to 100 | 10 to 100 | 100 to 1000 | ≥ 1000 | 10 to 100 | – | Cc1cccc(-c2nc(Nc3ccc(S(N)(=O)=O)cc3)ncc2C#N)c1 [Example 94]
26 | 10 to 100 | 100 to 1000 | 100 to 1000 | 100 to 1000 | ≥ 1000 | ≥ 1000 | – | CN1CCC(NS(=O)(=O)c2ccc(Nc3ncc(Cl)c(OC4CCCC4O)n3)cc2)CC1 (single isomer, unassigned) [Example 139b]
27 | < 10 | 10 to 100 | 100 to 1000 | 10 to 100 | 100 to 1000 | 10 to 100 | – | NS(=O)(=O)c1ccc(Nc2ncc(C(F)(F)F)c(O[C@@H]3CCC[C@@H]3O)n2)cc1 (single isomer, unassigned) [Example 99a, cis-4-((4-((2-hydroxycyclopentyl)oxy)-5-(trifluoromethyl)pyrimidin-2-yl)amino)benzenesulfonamide]
28 | < 10 | 10 to 100 | 100 to 1000 | 100 to 1000 | ≥ 1000 | 100 to 1000 | – | CC1CCCC(O)C1Oc1nc(Nc2ccc(S(N)(=O)=O)cc2)ncc1C(F)(F)F (single isomer, unassigned) [Example 112a]
29 | < 10 | < 10 | 10 to 100 | 10 to 100 | 100 to 1000 | 10 to 100 | – | NS(=O)(=O)c1ccc(Nc2ncc(C(F)(F)F)c(OC3CCCCC3O)n2)cc1 (single isomer, unassigned) [Example 111b]
30 | < 10 | 100 to 1000 | 100 to 1000 | 100 to 1000 | 100 to 1000 | 100 to 1000 | – | Cc1cnc(Nc2ccc(S(N)(=O)=O)cc2)nc1O[C@@H]1CCC[C@@H]1O (single isomer, unassigned) [Example 132a, cis-4-((4-((2-hydroxycyclopentyl)oxy)-5-methylpyrimidin-2-yl)amino)benzenesulfonamide]
31 | < 10 | 10 to 100 | 100 to 1000 | 100 to 1000 | 100 to 1000 | 100 to 1000 | – | [2H]C([2H])([2H])NS(=O)(=O)c1ccc(Nc2ncc(Cl)c(OC3COCC3(C)O)n2)cc1 (single isomer, unassigned) [Example 140a]
32 | < 10 | 10 to 100 | 100 to 1000 | 10 to 100 | 100 to 1000 | 100 to 1000 | – | CN1CCC(NS(=O)(=O)c2ccc(Nc3ncc(Cl)c(OC4CCCC4O)n3)cc2)CC1 (single isomer, unassigned) [Example 139a]
